Earlier results, collected in patent publication US7183293B2, “Ether derivatives useful as inhibitors of PDE4 isozymes” (Pfizer Inc., priority 2001, dated 2007).

Tests used:
SCW-induced arthritis = details: in vivo
rheumatoid arthritis = tested on: rheumatoid arthritis; design: dose or concentration left out as unconfirmed; details: 35 patients
[1] = tested on: FEV1 and forced vital capacity
[2] = tested on: lipopolysaccharide-induced mesenteric blood flow fall; details: dogs
PDE4B mutant enzyme = details: alanine for aspartate in the catalytic region
[3] = tested on: collagen induced arthritis
[4] = tested on: experimental allergic encephalomyelitis; details: marmoset
[5] = tested on: dextran sulfate induced colitis; details: rat
[6] = tested on: lipopolysaccharide-induced bowel erythrocyte extravasation; details: rats; for lipopolysaccharide-induced bowel erythrocyte extravasation: pretreatment i.p. 3×
[7] = tested on: T-cell mediated hepatic failure
[8] = in vivo
PDE4D = PDE4D (Homo sapiens, UniProt Q08499)
5-lipoxygenase [9] = details: a number of species
[10] = tested on: antigen-induced bronchospasm; details: rat
psoriatic lesions = details: in vivo
5-lipoxygenase [11] = details: in vivo
human PDE4B2B = human PDE4B2B (Homo sapiens, UniProt Q07343)
canine tracheal PDE4 = details: at 100 nM
bone loss = details: serial oral administrations
[12] = tested on: mineralized nodule formation and osteoclast-like cell formation
bronchodilation = details: in vivo
[13] = tested on: mean pulmonary artery pressure; details: oral administration, clinical conditions
[14] = tested on: LPS-stimulated ex vivo TNF release and PHA induced lymphocyte proliferation; details: oral dose of 300 mg

Chain of PDE4D (Q08499 whole entry, species assumed): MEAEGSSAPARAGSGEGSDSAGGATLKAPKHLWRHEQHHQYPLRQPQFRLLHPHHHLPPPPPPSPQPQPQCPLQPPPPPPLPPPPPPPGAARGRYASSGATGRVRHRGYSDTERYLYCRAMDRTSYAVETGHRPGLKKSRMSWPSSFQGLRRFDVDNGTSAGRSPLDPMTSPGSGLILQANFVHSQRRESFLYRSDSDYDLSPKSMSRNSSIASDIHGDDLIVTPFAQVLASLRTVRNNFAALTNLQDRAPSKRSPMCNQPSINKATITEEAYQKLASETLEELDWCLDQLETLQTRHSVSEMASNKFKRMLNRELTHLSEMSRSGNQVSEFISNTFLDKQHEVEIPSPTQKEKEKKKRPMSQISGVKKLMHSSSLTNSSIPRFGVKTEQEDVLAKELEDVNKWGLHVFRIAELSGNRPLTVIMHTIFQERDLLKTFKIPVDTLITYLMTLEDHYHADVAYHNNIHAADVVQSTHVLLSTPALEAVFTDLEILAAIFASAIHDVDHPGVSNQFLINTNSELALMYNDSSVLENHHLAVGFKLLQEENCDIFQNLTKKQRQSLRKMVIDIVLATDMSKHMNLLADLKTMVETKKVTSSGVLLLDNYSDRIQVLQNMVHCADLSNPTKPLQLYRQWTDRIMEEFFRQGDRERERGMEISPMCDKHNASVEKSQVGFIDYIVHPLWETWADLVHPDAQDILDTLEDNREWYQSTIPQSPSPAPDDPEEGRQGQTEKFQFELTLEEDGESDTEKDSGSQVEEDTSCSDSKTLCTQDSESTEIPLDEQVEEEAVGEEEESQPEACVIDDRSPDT
Chain of human PDE4B2B (Q07343 1-564 isoform Q07343-2): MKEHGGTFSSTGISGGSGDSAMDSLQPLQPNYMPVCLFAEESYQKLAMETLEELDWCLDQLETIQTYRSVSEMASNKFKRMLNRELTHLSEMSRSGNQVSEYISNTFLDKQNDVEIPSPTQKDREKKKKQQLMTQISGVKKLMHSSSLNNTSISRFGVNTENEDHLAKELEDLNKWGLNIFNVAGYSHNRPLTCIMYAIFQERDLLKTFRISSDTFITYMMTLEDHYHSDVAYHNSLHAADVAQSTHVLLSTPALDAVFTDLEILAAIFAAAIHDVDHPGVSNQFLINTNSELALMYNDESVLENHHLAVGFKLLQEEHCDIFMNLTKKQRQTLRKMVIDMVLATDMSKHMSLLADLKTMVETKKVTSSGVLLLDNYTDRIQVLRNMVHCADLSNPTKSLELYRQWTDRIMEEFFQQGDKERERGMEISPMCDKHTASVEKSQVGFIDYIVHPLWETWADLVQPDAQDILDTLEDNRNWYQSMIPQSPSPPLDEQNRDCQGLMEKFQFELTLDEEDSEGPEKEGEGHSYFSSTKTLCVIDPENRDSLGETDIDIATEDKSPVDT

In the case of `COc1ccc(C(=O)Nc2c(Cl)cncc2Cl)cc1OC1CCCC1` [RP73401], the “amelioration of disease (joint destruction, synovitis, fibrosis)” value (SCW-induced arthritis) is listed as “significant amelioration of disease” and the “clinical improvement, C-reactive protein and IL-6 serum levels” value (rheumatoid arthritis) is listed as “positive trend towards clinical improvement”.
For `COc1ccc([C@]2(C#N)CC[C@@H](C(=O)O)CC2)cc1OC1CCCC1` [SB-207,499], the “FEV and forced vital capacity (FVC)” value ([1]; 15 mg twice a day for six weeks) is given as “increrases” and the FEV1 ([1]; four week trial, six week study, 15 mg twice a day) is given as “improved FEV1”.
In the case of `COc1ccc(C2CNC(=O)C2)cc1OC1CCCC1` (centres unmarked) [rolipram], the “lipopolysaccharide induced intestinal hypoperfusion” value [2] is given as “attenuated”, the “stimulation of acid secretion” value (gastric parietal cells) is given as “very potent stimulator” and the “inhibition of mutant PDE4B” value (PDE4B mutant enzyme) is given as “critical for inhibition”. For the same compound, the “development of the disease” value ([3]; 3 mg/kg twice daily when arthritis was apparent) was “progression of severity was halted”, the “TNF-α and IFN-γ mRNA expression in regional lymph nodes” value ([3]; rat, in vivo) was “strong down-regulation” and the “clinical signs and MRI abnormalities” value [4] was “suppress the appearance of clinical signs”. The “effects in dextran sulfate induced colitis (bleeding and inflammatory markers)” value [5] was “beneficial effects comparable to prednisolone”, the “lipopolysaccharide induced erythrocyte extravasation” value [6] was “attenuated” and the “lipopolysaccharide-induced bowel erythrocyte extravasation” value [6] was “reduces”. For the same compound, the “plasma activities of ALT, AST and SDH” value ([7]; 0.1 to 10 mg/kg i.p., mice) was “dose-dependently inhibited”, the “concanavalin A-induced IL-4 release” value ([7]; mouse, in vivo) was “suppress” and the “relaxant activities of isoproterenol and forskolin” value (pulmonary artery rings) was “potentiates”.
For `COc1ccc(C(=O)Nc2c(Cl)cncc2Cl)cc1OC1CCCC1` [RP-73,401], the “inhibition of mutant PDE4B” value (PDE4B mutant enzyme) is given as “lose potency” and the “emesis / nausea and vomiting” value [8] is given as “elicit emesis”.
In the case of `CC(=O)CCCCn1c(=O)c2c(ncn2C)n(C)c1=O` [pentoxifylline], the “lipopolysaccharide-induced bowel erythrocyte extravasation” value [6] is given as “reduces”.
For `O=c1c2cccnc2n(-c2cccc([N+](=O)[O-])c2)c(=O)n1Cc1ccncc1` [RS-25,344], the “potency against PDE4 subtypes” value (PDE4D) is given as “more potent against PDE4D”.
In the case of `CCCn1c(=O)c2[nH]cnc2n(-c2ccc(Cl)cc2)c1=O` [LAS31025], the “effects in dextran sulfate induced colitis (bleeding and inflammatory markers)” value [5] is given as “beneficial effects comparable to prednisolone”.
In the case of `COC1(c2cc(F)cc(OCc3ccc4c(ccc(=O)n4C)c3)c2)CCOCC1` [ZD-2138], the oral activity (5-lipoxygenase [9]) is given as “highly active orally”.
For `COc1ccc(C(=O)Nc2c(C)noc2C)cc1OC1CCCC1` [RPR-132294], the “inhibition of antigen-induced bronchospasm” value [10] is listed as “activity”.
For `CCCCn1c(=O)c2c(ncn2CC(C)=O)n(CCCC)c1=O` [debufylline], the “lipopolysaccharide-induced bowel erythrocyte extravasation” value [6] is listed as “reduces”.
For `CCCCOc1cc(CC2CNC(=O)N2)ccc1OC` (centres unmarked) [Ro 20-1724], the “adverse systemic or cutaneous effects” value (psoriatic lesions) is listed as “without adverse systemic or cutaneous effects”.
In the case of `C[C@H](C#Cc1ccc(Oc2ccc(F)cc2)o1)N(O)C(N)=O` [Abbott-79175], the duration of action (5-lipoxygenase [11]) is listed as “longer duration of action than zileuton”.
In the case of `COC(=O)N1C[C@H](c2ccc(OC)c(OC3CCCC3)c2)[C@@](C)(C(C)=O)C1` (racemic) [Formula (0.0.61), (R,R)-(+/−)-methyl-3-acetyl-4-[3-(cyclopentyloxy)-4-methoxyphenyl]-3-methyl-1-pyrrolidine carboxylate], the “affinity to the catalytic and the HARB sites” value (human PDE4B2B) is given as “equal affinity”.
For `COc1ccc(C(=O)Cc2c(Cl)cncc2Cl)c2c1OCCCCO2` [Formula (0.0.49)], the “inhibition of canine tracheal PDE4” value (canine tracheal PDE4) is given as “almost complete inhibition”.
In the case of `O=c1c2cccnc2n(-c2cccc([N+](=O)[O-])c2)c(=O)n1Cc1ccncc1` [RS-23,544], the “emesis / nausea and vomiting” value [8] is listed as “elicit emesis”.
In the case of `Clc1nc2c(N3CCCC3)nc(N3CCNCC3)nc2nc1NCc1ccccc1` [Formula (0.0.55)], the “inhibition of the growth of tumor cells” value (tumor cells) is given as “micromolar concentrations”.
In the case of `CCCCn1c(=O)c2c(ncn2CC(C)=O)n(CCCC)c1=O` [denbufylline], the “lipopolysaccharide induced intestinal hypoperfusion” value [2] is listed as “attenuated”, the “lipopolysaccharide induced erythrocyte extravasation” value [6] is listed as “attenuated” and the “bone mineral density of femurs” value (bone loss) is listed as “inhibit the decrease in the bone mineral density”. For the same compound, the “number of mineralized nodules” value [12] was “increase in the number of mineralized nodules”.
In the case of `COc1cc2c(cc1OC)[C@@H]1CN(C)CC[C@@H]1N=C2c1ccc(NC(C)=O)cc1` [benafentrine], the bronchodilation (bronchodilation) is listed as “bronchodilation only when administered by inhalation”.
For `COc1ccc(CC2CNC(=O)N2)cc1OC1CCCC1` (centres unmarked) [Ro-20-1724], the “inhibition of mutant PDE4B” value (PDE4B mutant enzyme) is given as “lose potency”.
For `Cc1[nH]c(=O)c(C#N)cc1-c1ccncc1` [milrinone], the adverse events (bronchodilation) is listed as “tachycardia and hypotension”, the bronchodilation (bronchodilation) is listed as “short-lived bronchodilation” and the “protection against induced bronchoconstriction” value (bronchodilation) is listed as “slight degree of protection”. For the same compound, the “mean pulmonary artery pressure” value [13] was “decreases” and the “relaxant activities of isoproterenol and forskolin” value (pulmonary artery rings) was “same effect”.
For `CSc1ccc(C(=O)c2[nH]c(=O)[nH]c2C)cc1` [enoximone], the “mean pulmonary artery pressure” value [13] is listed as “decreases”.
In the case of `CCCn1c(=O)c2c(C)nc(CC)n2c2nc(OC)ccc21` [Example D-22888], the rhinorrhea (rhinorrhea; antigen-challenged pig) is listed as “inhibit rhinorrhea” and the anti-allergic effect (rhinorrhea; pig, in vivo) is listed as “strong anti-allergic affect”.
For `Nc1nc2c([nH]1)c(=O)n(CC1CC1)c(=O)n2CC1CC1` [BRL-61,063], the “emesis / nausea and vomiting” value [8] is listed as “nausea and vomiting”.
In the case of `COc1ccc(C2CNC(=O)NC2)cc1O[C@H]1C[C@@H]2CC[C@H]1C2` [CP-80,633], the “emesis / nausea and vomiting” value [8] is listed as “elicit emesis”.
For `CCNc1ncn(Cc2ccc(OC)c(OC3CCCC3)c2)c2nc(C(C)C)nc1-2` [Example V-11294A], the “reducing TNF levels and lymphocyte proliferation” value [14] is listed as “effective”.
